Experiments:
Format in all cases: in vivo
Sunflower = assay: Test C preemergence; settings: Rate 31 g/ha, scale 0 to 100
[1] = system: redroot pigweed (Amaranthus retroflexus); assay: Test A postemergence, sprayed to runoff; settings: approx. eleven days
Summary of the method: (§1)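 Test chemicals in solvent/surfactant mixture applied preemergence as soil drench on sandy loam or postemergence sprayed to runoff at the 1–2-leaf stage. After ~11 days in a greenhouse, injury rated visually versus untreated controls on a 0 (no effect) to 10 (complete control) scale.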

[2] = system: giant foxtail (Setaria viridis); assay: Test A postemergence, sprayed to runoff; settings: approx. eleven days
Summary of the method: as §1

[3] = system: barnyardgrass (Echinochloa crus-galli); assay: Test A postemergence, sprayed to runoff; settings: approx. eleven days
Summary of the method: as §1

[4] = system: crabgrass (Digitaria spp.); assay: Test A postemergence, sprayed to runoff; settings: approx. eleven days
Summary of the method: as §1

[5] = system: Surinam grass (Brachiaria decumbens); assay: Test B postemergence; settings: 13 to 15 days
Summary of the method: (§2)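 Ratings on a 0 to 100 visual scale (100 complete control) compare treated plants with controls 13 to 15 days after application. Treatments were pre- or postemergence sprays of compound in non-phytotoxic solvent with surfactant.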

[6] = system: cocklebur (Xanthium strumarium); assay: Test B postemergence; settings: 13 to 15 days
Summary of the method: as §2

[7] = system: crabgrass (Digitaria sanguinalis); assay: Test B postemergence; settings: 13 to 15 days
Summary of the method: as §2

[8] = system: pigweed (Amaranthus retroflexus); assay: Test B postemergence; settings: 13 to 15 days
Summary of the method: as §2

[9] = system: lambsquarters (Chenopodium album); assay: Test B postemergence; settings: 13 to 15 days
Summary of the method: as §2

[10] = system: giant foxtail (Setaria faberii); assay: Test B postemergence; settings: 13 to 15 days
Summary of the method: as §2

[11] = system: morning glory (Ipomoea hederacea); assay: Test B postemergence; settings: 13 to 15 days
Summary of the method: as §2

[12] = system: blackgrass (Alopecurus myosuroides); assay: Test B postemergence; settings: 13 to 15 days
Summary of the method: as §2

[13] = system: velvetleaf (Abutilon theophrasti); assay: Test B postemergence; settings: 13 to 15 days
Summary of the method: as §2

[14] = system: smallflower flatsedge (Cyperus difformis); assay: Test B flooded paddy test; settings: Rate 1000 g/ha, scale of 0 to 100 where 0 is no effect and 100 is complete control, visually evaluated after 13 to 15 days
Summary of the method: (§3)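 Treatment: formulated chemical applied to flooded paddy plants at 2-leaf stage. Hold: greenhouse, 13–15 days. Scoring: visual comparison to controls, 0 (no effect) to 100 (complete control).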

rice (Oryza saliva) = assay: Test B flooded paddy test; settings: Rate 1000 g/ha, scale of 0 to 100 where 0 is no effect and 100 is complete control, visually evaluated after 13 to 15 days
Summary of the method: as §3

[15] = system: duck salad (Heteranthera limosa); assay: Test B flooded paddy test; settings: Rate 1000 g/ha, scale of 0 to 100 where 0 is no effect and 100 is complete control, visually evaluated after 13 to 15 days
Summary of the method: as §3

[16] = system: barnyardgrass (Echinochloa crus-galli); assay: Test B flooded paddy test; settings: Rate 1000 g/ha, scale of 0 to 100 where 0 is no effect and 100 is complete control, visually evaluated after 13 to 15 days
Summary of the method: as §3

[17] = Rate 125 g/ha, scale 0 (no effect) to 100 (complete control)
[18] = Rate 500 g/ha, scale 0 to 100, 0 is no effect, 100 is complete control

CC(C)c1ccn(C2OCN(c3cccc(C(F)(F)F)c3)C2=O)n1 (stereo not shown) [Compound 27]
50: Plant response rating (visual injury vs untreated controls) ([2]; Rate 500 g/ha) | Plant response rating, Lambsquarters [9, 17] | Plant response rating, Morningglory [11, 18] | Plant response rating, Rice (rice (Oryza saliva))
100: Plant response rating, Flatsedge [14] | Plant response rating, Ducksalad [15]
20: Plant response rating (visual injury vs untreated controls) ([1]; Rate 500 g/ha) | Plant response rating (visual injury vs untreated controls) ([4]; Rate 500 g/ha) | Plant response rating, Surinam grass [5, 18] | Plant response rating, Crabgrass [7, 17]
60: Plant response rating (visual injury vs untreated controls) ([4]; Rate 2000 g/ha) | Plant response rating, Pigweed [8, 18]
30: Plant response rating, Cocklebur [6, 18] | Plant response rating, Foxtail, Giant [10, 18]
0: Plant response rating, Sunflower (Sunflower) | Plant response rating, Surinam grass [5, 17] | Plant response rating, Cocklebur [6, 17] | Plant response rating, Foxtail, Giant [10, 17] | Plant response rating, Morningglory [11, 17] | Plant response rating, Blackgrass [12, 17] | Plant response rating, Blackgrass [12, 18] | Plant response rating, Velvetleaf [13, 17] | Plant response rating, Velvetleaf [13, 18]
40: Plant response rating, Crabgrass [7, 18] | Plant response rating, Pigweed [8, 17]
70: Plant response rating (visual injury vs untreated controls) ([3]; Rate 500 g/ha)
90: Plant response rating (visual injury vs untreated controls) ([2]; Rate 2000 g/ha) | Plant response rating, Lambsquarters [9, 18] | Plant response rating, Barnyardgrass [16]
80: Plant response rating (visual injury vs untreated controls) ([1]; Rate 2000 g/ha) | Plant response rating (visual injury vs untreated controls) ([3]; Rate 2000 g/ha)
